Results from PubChem BioAssay (NCI).
“And” between values parts separate entries of the source, which are not always exact repeats. Equal values may be shown once.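 48-hour exposure; five concentrations; linearly interpolated endpoints. Here, GI50 denotes the concentration required for 50% inhibition of growth. TGI marks complete inhibition of growth.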

How the values were obtained:
Test in all cases: DTP human tumour cell line panel, 48 h
[1] = system: CCRF-CEM leukemia
[2] = system: A549 NSCLC
[3] = system: NCI-H522 lung
[4] = system: SN12C renal
[5] = system: TK-10 renal
[6] = system: SK-OV-3 ovarian
[7] = system: SK-MEL-2 melanoma
[8] = system: NCI/ADR-RES ovarian
[9] = system: DU-145 prostate
[10] = system: HOP-92 NSCLC
[11] = system: EKVX NSCLC
[12] = system: KM12 colon
[13] = system: SW-620 colon
[14] = system: LOX IMVI melanoma
[15] = system: MDA-MB-435
[16] = system: SK-MEL-5 melanoma
[17] = system: SNB-19 CNS
[18] = system: OVCAR-4 ovarian
[19] = system: SF-539 CNS
[20] = system: HT29 colon
[21] = system: UACC-257 melanoma
[22] = system: HCT-116 colon
[23] = system: SK-MEL-28 melanoma
[24] = system: CAKI-1 renal
[25] = system: HS 578T breast
[26] = system: MCF7 breast
[27] = system: U251 CNS
[28] = system: BT-549 breast
[29] = system: OVCAR-8 ovarian
[30] = system: HCT-15 colon
[31] = system: A498 renal
[32] = system: MOLT-4 leukemia
[33] = system: NCI-H226 lung
[34] = system: 786-0 renal
[35] = system: SNB-75 CNS
[36] = system: UO-31 renal
[37] = system: T-47D breast
[38] = system: HL-60(TB) leukemia
[39] = system: M14 melanoma
[40] = system: COLO 205 colon
[41] = system: SR leukemia
[42] = system: SF-268 CNS
[43] = system: OVCAR-3 ovarian
[44] = system: IGROV1 ovarian
[45] = system: PC-3 prostate
[46] = system: K-562 leukemia
[47] = system: RXF 393 renal
[48] = system: ACHN renal
[49] = system: MDA-MB-231 breast
[50] = system: OVCAR-5 ovarian
[51] = system: SF-295 CNS
[52] = system: UACC-62 melanoma
[53] = system: MALME-3M melanoma
[54] = system: NCI-H23 lung
[55] = system: RPMI-8226 leukemia
[56] = system: NCI-H460 lung
[57] = system: HOP-62 NSCLC
[58] = system: HCC-2998 colon

## OCc1ccc(-c2nn(Cc3ccccc3)c3ccccc23)o1
[1]
  GI50: 24.3 µM and 25.5 µM
  TGI: > 95.9 µM
[2]
  GI50: 15.6 µM and 18.5 µM
  TGI: 47.7 µM and > 56.9 µM
[3]
  GI50: 12 µM and 20.6 µM
  TGI: 28.2 µM and > 58.7 µM
[4]
  GI50: 15.9 µM and 15.1 µM
  TGI: 35.5 µM and 33.7 µM
[5]
  GI50: 0.253 µM and 0.489 µM
  TGI: 1.02 µM and 3.61 µM
[6]
  GI50: 20.7 µM and 17.6 µM
  TGI: 57.1 µM and 43.9 µM
[7]
  GI50: 16.6 µM and 30.7 µM
  TGI: 32.6 µM and > 100 µM
[8]
  GI50: 19.2 µM and 11.5 µM
  TGI: 67.1 µM and 49.6 µM
[9]
  GI50: 16.6 µM and 17.8 µM
  TGI: 36.9 µM and 43.8 µM
[10]
  GI50: 10.4 µM and 12.2 µM
  TGI: 38.9 µM and 38.1 µM
[11]
  GI50: 18.9 µM and 22.9 µM
  TGI: 72.7 µM and 58.9 µM
[12]
  GI50: 16.9 µM and 16.6 µM
  TGI: 35.2 µM and 34.5 µM
[13]
  GI50: 13.3 µM and 12.3 µM
  TGI: 51.9 µM and 32.8 µM
[14]
  GI50: 14.6 µM
  TGI: 29.8 µM and 27.7 µM
[15]
  GI50: 17.2 µM and 18.7 µM
  TGI: 40.8 µM and 39.5 µM
[16]
  GI50: 13.7 µM and 14.2 µM
  TGI: 26.7 µM and 27.3 µM
[17]
  GI50: 21.5 µM and 13.7 µM
  TGI: 96.7 µM and > 52 µM
[18]
  GI50: 10.2 µM and 28.1 µM
  TGI: > 100 µM
[19]
  GI50: 16.2 µM and 18.6 µM
  TGI: 32.2 µM and 35.5 µM
[20]
  GI50: 15 µM and 32.8 µM
  TGI: 32.2 µM and > 100 µM
[21]
  GI50: 0.268 µM and 0.32 µM
  TGI: 0.972 µM and 1.59 µM
[22]
  GI50: 1.65 µM and 8.72 µM
  TGI: 20 µM and 22.7 µM
[23]
  GI50: 16.9 µM and 15.7 µM
  TGI: 36.5 µM and 47.5 µM
[24]
  TGI: > 63.5 µM and 34 µM
[25]
  GI50: 17.8 µM and 15.9 µM
  TGI: > 69.9 µM and 42.4 µM
[26]
  GI50: 4.08 µM and 1.69 µM
  TGI: 24.8 µM and 57.1 µM
[27]
  GI50: 8.07 µM and 12.4 µM
  TGI: 28.5 µM and > 47.6 µM
[28]
  GI50: 17.3 µM and 22.7 µM
  TGI: 37.4 µM and 53 µM
[29]
  GI50: 16.3 µM and 20.7 µM
  TGI: 44.7 µM and 57 µM
[30]
  GI50: 17.4 µM and 20.1 µM
  TGI: 49.2 µM and 41.4 µM
[31]
  GI50: 0.092 µM and 0.0445 µM
  TGI: 0.25 µM and 0.144 µM
[32]
  TGI: 62.2 µM and 37.4 µM
[33]
  GI50: 0.156 µM and 0.114 µM
  TGI: 0.346 µM and 0.371 µM
[34]
  GI50: 24 µM and 4.69 µM
  TGI: > 81.6 µM
[35]
  GI50: 11.7 µM and > 100 µM
  TGI: 47.2 µM and > 100 µM
[36]
  GI50: 13.7 µM and 23.8 µM
  TGI: 57.4 µM and > 84.7 µM
[37]
  GI50: 11.1 µM and 12.4 µM
  TGI: 43.4 µM and 26.2 µM
[38]
  GI50: 15.6 µM and 19 µM
  TGI: 40.5 µM and 58.3 µM
[39]
  GI50: 21.1 µM and 29.2 µM
  TGI: 45.6 µM and > 57.8 µM
[40]
  GI50: 8.05 µM and 5.73 µM
  TGI: 26.2 µM and 21.7 µM
[41]
  GI50: 12 µM and 4.48 µM
  TGI: 45.2 µM and 39.6 µM
[42]
  GI50: 18.6 µM and 19 µM
  TGI: 65.8 µM and 51.1 µM
[43]
  GI50: 1.35 µM and 1.71 µM
  TGI: 9.8 µM and 13.4 µM
[44]
  GI50: 0.508 µM and 0.288 µM
  TGI: 22.5 µM and > 93.1 µM
[45]
  GI50: 21.8 µM and 16.6 µM
  TGI: 64.7 µM and 36 µM
[46]
  GI50: 10.1 µM and 7.41 µM
  TGI: 63.2 µM and > 42.3 µM
[47]
  GI50: 7.94 µM and 14.8 µM
  TGI: 30.7 µM and 38 µM
[48]
  GI50: 19.8 µM and 16 µM
  TGI: 91.9 µM and 39.8 µM
[49]
  GI50: 19.6 µM and 22.2 µM
  TGI: 60.3 µM and 55.2 µM
[50]
  GI50: 0.564 µM and 0.0852 µM
[51]
  GI50: 13.4 µM and 18.5 µM
  TGI: 33.7 µM and 46 µM
[52]
  GI50: 0.52 µM and 3.41 µM
  TGI: 16.4 µM and > 44.4 µM
[53]
  GI50: 24.3 µM and 21.1 µM
  TGI: 76.3 µM and 55.5 µM
[54]
  GI50: 19.2 µM and 20.9 µM
  TGI: 58.8 µM and 50.8 µM
[55]
  GI50: 14.3 µM and 3.15 µM
  TGI: 43.8 µM and 15.3 µM
[56]
  GI50: 12.8 µM and 12.2 µM
  TGI: 29.4 µM and 28.5 µM
[57]
  GI50: 15.8 µM and 2.86 µM
  TGI: 53.8 µM and 30.2 µM
[58]
  GI50: 15.5 µM and 14.8 µM
  TGI: 36.6 µM and 28 µM
